# Patent publication US20110217280A1, “METHODS FOR TREATING NEUROPSYCHIATRIC CONDITIONS” (priority 2007, published 2011)
# Key:
# [1] = system: double transgenic GFP-M/DN-DISC1 mice; assay: In vivo monitoring of dendritic spine plasticity by two photon laser scanning microscopy; details: 1 mg/kg i.p. once per day, imaging P40 to P70
# Excerpt: In the following experiment, dendritic spine plasticity is directly monitored in vivo by two photon laser scanning microscopy (TPLSM) in double transgenic GFP-M/DN-DISC1 mice treated with a PAK activator or a placebo. Mice (C57BL/6) expressing GFP in a subset of cortical layer 5 neurons (transgenic line GFP-M described in Feng et al., 2000, Neuron 28:41-51) are crossed with DN-DISC1 C57BL/6 DN-DISC1 mice (Hikida et al (2007), Proc Natl Acad Sci USA, 104(36):14501-14506) to obtain heterozygous transgenic mice, which are then crossed to obtain homozygous double transgenic GFPM/DN-DISC1 mice used in this study.
# GFP-M/DN-DISC1 animals aged 28-61 days are anesthetized using avertin ([…]; Sigma, St. Louis, Mo.). The skull is exposed, scrubbed, and cleaned with ethanol. […]
# For in vivo two photon imaging, a two-photon laser scanning microscope is used as described in Majewska et al, (2000), Pflügers Arch, 441:398-408. […] Fluorescence is detected using photomultiplier tubes (HC125-02; Hamamatsu, Shizouka, Japan) in whole-field detection mode. The craniotomy over the visual cortex is initially identified under whole-field fluorescence illumination, and areas with superficial dendrites are identified using a 20×, 0.95 numerical aperture lens (IR2; Olympus Optical). […]
# PAK1 = PAK1 (Homo sapiens, UniProt Q13153); details: independent of GTPase activators such as Cdc42 or Rac; cited from earlier work
# Chain of PAK1 (Q13153 whole entry): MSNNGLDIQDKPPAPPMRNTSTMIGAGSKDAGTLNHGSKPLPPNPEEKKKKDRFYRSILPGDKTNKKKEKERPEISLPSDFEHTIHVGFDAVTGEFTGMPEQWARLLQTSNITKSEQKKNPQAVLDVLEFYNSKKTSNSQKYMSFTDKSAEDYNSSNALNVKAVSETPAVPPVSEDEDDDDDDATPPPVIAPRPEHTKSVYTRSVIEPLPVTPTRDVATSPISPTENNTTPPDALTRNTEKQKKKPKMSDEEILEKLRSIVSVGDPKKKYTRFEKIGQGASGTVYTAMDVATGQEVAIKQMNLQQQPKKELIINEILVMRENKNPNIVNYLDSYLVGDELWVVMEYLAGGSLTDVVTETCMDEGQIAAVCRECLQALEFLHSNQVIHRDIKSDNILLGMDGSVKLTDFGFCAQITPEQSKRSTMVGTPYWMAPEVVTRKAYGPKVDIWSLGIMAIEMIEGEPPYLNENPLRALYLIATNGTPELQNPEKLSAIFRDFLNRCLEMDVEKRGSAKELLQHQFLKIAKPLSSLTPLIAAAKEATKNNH
smiles,measurement,setting,value
"CCCCCCCCCCCCCC=CC(O)C(N)CO (stereo not drawn) [sphingosine, 2-amino-4-octadecene-1,3-diol]",spine density relative to untreated control animals,[1],increased spine density
same,spine turnover relative to untreated control animals,[1],reduced spine turnover
same,activation of PAK1,PAK1,activate PAK1 independently of GTPase activators
